Laboratory results reported in publication PMC7904550, “Application of grouping and read-across for the evaluation of parabens of different chain lengths with a particular focus on endocrine properties” (Archives of Toxicology, 2021).
Where two headings read alike, the source gives them in different places. Marks after values point to notes of the source that are not given here.

Legend:
[1] = Octanol–water partition coefficient (Log Kow); format: physicochemical; conditions: mean; OECD TG 107 and OECD TG 117
Source text: (§1) Generally, these parabens have very similar physico-chemical properties.

[2] = system: rats; conditions: key studies Gazin et al. 2013, Pouliot 2013; ref SCCS 2013; EMA 2015; cited from earlier work
[3] = system: rats; conditions: rat, in vivo; cited from earlier work
[4] = system: Wistar rats; assay: Prenatal developmental toxicity study (OECD TG 414); format: in vivo, rat; conditions: for NOAEL, developmental toxicity: OECD 414 v 2001, oral gavage
Source text: (§2) Healthy and specific pathogen-free male and female (non-pregnant and nulliparous) Wistar Crl: WI(Han) rats were obtained from Charles River Laboratories (Germany). […] Upon arrival at BSL BIOSERVICE, the animals underwent an acclimatisation period of at least 5 days, and they were approximately 15–16 weeks old at the onset of the treatment period.

[5] = Acid dissociation constant (pKa); format: physicochemical; conditions: OECD TG 112; read-out: pKa
Source text: as §1

[6] = system: mammalian cells; conditions: OECD 473 or 487; ref ECHA dissemination portal; cited from earlier work
[7] = system: oestrogen receptors; design: method as in Byford et al. 2002; conditions: ref Byford et al. 2002; cited from earlier work
[8] = system: Wistar rats; assay: Reproductive toxicity screening combined with 28-day repeated dose toxicity study (OECD TG 422); format: in vivo, rat; conditions: for NOAEL, reproductive toxicity: OECD 422 v 2016, oral gavage
Source text: as §2

[9] = system: Wistar rats; conditions: ref Food and Drug Research Laboratories 1972, cited from earlier work; for NOAEL, developmental toxicity: similar to OECD 414, conducted 1972, highest dose tested, GD 6–15

For CCCOC(=O)c1ccc(O)cc1 [Propyl paraben, Propyl 4-hydroxybenzoate], the “Log Kow” value [1] is listed as 2.8 (mean; OECD TG 107 and OECD TG 117), the NOAEL [2] is listed as 1000 mg/kg bw/day and the “Eye irritation/eye corrosion classification” value [3] is listed as “Not irritating [c] (OECD 437 and 405; 2012)”. For the same compound, the “NOAEL, developmental toxicity” value [4] was “NOAEL: 1000 (OECD 414; v 2001) mg/kg body weight/day”, the “NOAEL, developmental toxicity” value ([4]; listed as propyl paraben) was 1000 mg/kg body weight/day and the Gestation length ([4]; OECD TG 414) was “n.a. / NAE”. For the same compound, the “NOAEL: No. of foetal deaths; viable foetuses” value ([4]; OECD TG 414) was 1000 mg/kg bw/day, the “No. of implantations, corpora lutea” value ([4]; OECD TG 414) was “NAE / NAE” and the “No. of live births” value ([4]; OECD TG 414) was “NAE / NAE”. The Postimplantation loss ([4]; OECD TG 414) was “NAE / NAE”, the Pre-implantation loss ([4]; OECD TG 414) was “NAE / NAE” and the “Uterus weight (with cervix)” value ([4]; OECD TG 414) was “NAE / NAE”. The “Thyroid HP” value ([4]; dams) was “NAE / NAE (dams)”, the “Thyroid stimulating hormone level” value ([4]; dams) was “NAE / NAE (dams)” and the Thyroid weight ([4]; dams) was “NAE / NAE (dams)”. For the same compound, the “Triiodothyronine / thyroxine level” value ([4]; dams) was “NAE / NAE (dams)”, the Anogenital distance ([4]; foetus) was “NAE / NAE” and the Foetal development ([4]; foetus) was “NAE / NAE”. The Litter size ([4]; foetus) was “NAE / NAE”, the “No. of foetal deaths; viable foetuses” value ([4]; foetus) was “NAE / NAE” and the “Presence of anomalies (external, visceral, skeletal)” value ([4]; foetus) was “NAE / NAE”. For the same compound, the “Treatment-related effects in dams or pups” value ([4]; implantation throughout pregnancy) was “No treatment-related effects”.

In the case of COC(=O)c1ccc(O)cc1 [Methyl paraben, Methyl 4-hydroxybenzoate], the pKa [5] is listed as 8.4, the “Cytogenicity in mammalian cells classification” value [6] is listed as “Clastogenic with metabolic activation (OECD 473; 1987) [d]” and the “Rank of oestrogen receptor activation among shorter-chained parabens” value [7] is listed as “the least”. For the same compound, the “NOAEL, reproductive toxicity” value [8] was “NOAEL: 1000 (OECD 422; v 2016) mg/kg body weight/day”, the “NOAEL, reproductive toxicity” value ([8]; listed as methyl paraben) was 1000 mg/kg body weight/day and the “Treatment-related effects in parental animals or pups” value ([8]; OECD TG 422) was “no treatment-related effects”. For the same compound, the “Adrenals HP” value ([8]; P0, F1) was “NAE / NAE”, the Adrenals weight ([8]; P0, F1) was “NAE / NAE” and the Brain weight ([8]; P0, F1) was “NAE / NAE”. The “Coagulating gland HP” value ([8]; P0, F1) was “NAE / NAE”, the “Epididymis HP” value ([8]; P0, F1) was “NAE / NAE” and the Epididymis weight ([8]; P0, F1) was “NAE / NAE”. For the same compound, the Fertility ([8]; P0, F1) was “NAE / NAE”, the Foetal development ([8]; P0, F1) was “NAE / NAE” and the Gestation length ([8]; P0, F1) was “NAE / NAE”. For the same compound, the Litter size ([8]; P0, F1) was “NAE / NAE”, the Litter viability ([8]; P0, F1) was “NAE / NAE” and the Liver weight ([8]; P0, F1) was “NAE / NAE”. The “Mammary gland HP; males” value ([8]; P0, F1) was “NAE / NAE”, the Nipple development ([8]; P0, F1) was “NAE / NAE” and the “No. of implantations, corpora lutea” value ([8]; P0, F1) was “NAE / NAE”. For the same compound, the “No. of live births” value ([8]; P0, F1) was “NAE / NAE”, the Oestrus cyclicity ([8]; P0, F1) was “NAE / NAE” and the “Ovary HP” value ([8]; P0, F1) was “NAE / NAE”. The Ovary weight ([8]; P0, F1) was “NAE / NAE”, the Postimplantation loss ([8]; P0, F1) was “NAE / NAE” and the Pre-implantation loss ([8]; P0, F1) was “NAE / NAE”. The “Presence of anomalies (external, visceral, skeletal)” value ([8]; P0, F1) was “NAE / NAE”, the “Prostate HP” value ([8]; P0, F1) was “NAE / NAE” and the Prostate weight ([8]; P0, F1) was “NAE / NAE”. The Reproduction ([8]; P0, F1) was “NAE / NAE”, the “Seminal vesicles HP” value ([8]; P0, F1) was “NAE / NAE” and the Seminal vesicles weight ([8]; P0, F1) was “NAE / NAE”. For the same compound, the “Testis HP” value ([8]; P0, F1) was “NAE / NAE”, the Testis weight ([8]; P0, F1) was “NAE / NAE” and the “Thyroid stimulating hormone level” value ([8]; P0, F1) was “NAE / NAE”. The Time to mating ([8]; P0, F1) was “NAE / NAE”, the “Triiodothyronine / thyroxine level” value ([8]; P0, F1) was “NAE / NAE” and the “Uterus HP (with cervix)” value ([8]; P0, F1) was “NAE / NAE”. For the same compound, the “Uterus weight (with cervix)” value ([8]; P0, F1) was “NAE / NAE”, the “Vagina HP” value ([8]; P0, F1) was “NAE / NAE” and the Vaginal smears ([8]; P0, F1) was “NAE / NAE”. The “NOAEL: No. of foetal deaths; viable foetuses” value ([9]; TG 414-like, highest dose) was 550 mg/kg bw/day, the “No. of foetal deaths; viable foetuses” value ([9]; TG 414-like, up to 550 mg/kg bw/day) was “NAE / NAE” and the “Triiodothyronine / thyroxine level” value ([9]; dams, TG 414-like, up to 550 mg/kg bw/day) was “NAE / NAE (dams)”. The “NOAEL, developmental toxicity” value [9] was “NOAEL: 550 (highest dose tested) (similar to OECD 414; conducted 1972) mg/kg body weight/day” and the “NOAEL, developmental toxicity” value ([9]; listed as methyl paraben) was 550 mg/kg body weight/day.
